Source: patent publication US7745636B2, “Hepatitis C virus inhibitors” (Bristol-Myers Squibb Company, priority 2006, dated 2010)

Test system: HCV 1b-377-neo replicon cells
Test: HCV Replicon assay, HCV 1b-377-neo replicon cells
Type: cell-based, HCV 1b genotype
Conditions: Hepatitis C virus, Table 2, read-out: Range (EC50 against HCV 1b)

Row | SMILES | EC50
1 | COC(=O)N[C@@H](C(=O)N1CCC[C@H]1c1nc(-c2cnc(-c3ccc(-c4cnc([C@@H]5CCCN5C(=O)[C@H](NC(=O)OC)c5ccccc5)[nH]4)c(F)c3)nc2)c[nH]1)c1ccccc1 [Example D69, methyl ((1R)-2-((2S)-2-(5-(2-(3-fluoro-4-(2-((2S)-1-((2R)-2-((methoxycarbonyl)amino)-2-phenylacetyl)-2-pyrrolidinyl)-1H-imidazol-5-yl)phenyl)-5-pyrimidinyl)-1H-imidazol-2-yl)-1-pyrrolidinyl)-2-oxo-1-phenylethyl) carbamate] | 0.001 to 0.999 nM
2 | COC(=O)N[C@H](C(=O)N1CCC[C@H]1c1nc(-c2cnc(-c3ccc(-c4cnc([C@@H]5CCCN5C(=O)[C@@H](NC(=O)OC)[C@@H](C)OC)[nH]4)c(F)c3)nc2)c[nH]1)[C@@H](C)OC [Example D70, methyl ((1S,2R)-1-(((2S)-2-(5-(2-fluoro-4-(5-(2-((2S)-1-(N-(methoxycarbonyl)-O-methyl-L-threonyl)-2-pyrrolidinyl)-1H-imidazol-5-yl)-2-pyrimidinyl)phenyl)-1H-imidazol-2-yl)-1-pyrrolidinyl)carbonyl)-2-methoxypropyl) carbamate] | 0.001 to 0.999 nM
3 | COC(=O)N[C@@H](C)C(=O)N1CCC[C@H]1c1nc(-c2cnc(-c3ccc(-c4cnc([C@@H]5CCCN5C(=O)[C@H](C)NC(=O)OC)[nH]4)cc3)nc2)c[nH]1 [Example D73, methyl ((1S)-2-((2S)-2-(5-(4-(5-(2-((2S)-1-(N-(methoxycarbonyl)-L-alanyl)-2-pyrrolidinyl)-1H-imidazol-5-yl)-2-pyrimi-dinyl)phenyl)-1H-imidazol-2-yl)-1-pyrrolidinyl)-1-methyl-2-oxoethyl)carbamate] | 0.001 to 0.999 nM
4 | COC(=O)N[C@H](C(=O)N1CCC[C@H]1c1nc(-c2cnc(-c3ccc(-c4cnc([C@@H]5CCCN5C(=O)[C@@H](NC(=O)OC)C(C)C)[nH]4)cc3)nc2)c[nH]1)C(C)C [Example D74, methyl ((1S)-1-(((2S)-2-(5-(2-(4-(2-((2S)-1-((2S)-2-((methoxycarbonyl)amino)-3-methylbutanoyl)-2-pyrrolidinyl)-1H-imidazol-5-yl)phenyl)-5-pyrimidinyl)-1H-imidazol-2-yl)-1-pyrrolidinyl)carbonyl)-2-methylpropyl) carbamate] | 0.001 to 0.999 nM
5 | COC(=O)N[C@H](C(=O)N1CCC[C@H]1c1nc(-c2cnc(-c3ccc(-c4cnc([C@@H]5CCCN5C(=O)[C@@H](NC(=O)OC)C5CC5)[nH]4)cc3)nc2)c[nH]1)C1CC1 [Example D75, methyl ((1S)-1-cyclopropyl-2-((2S)-2-(5-(2-(4-(2-((2S)-1-((2S)-2-cyclopropyl-2-((methoxycarbonyl)amino)acetyl)-2-pyrrolidinyl)-1H-imidazol-5-yl)phenyl)-5-pyrimidinyl)-1H-imidazol-2-yl)-1-pyrrolidinyl)-2-oxoethyl)carbamate] | 0.001 to 0.999 nM
6 | CCN(CC)[C@@H](C(=O)N1CCC[C@H]1c1ncc(-c2ccc(-c3ncc(-c4c[nH]c([C@@H]5CCCN5C(=O)[C@@H](NC(=O)OC)C(C)C)n4)cn3)cc2)[nH]1)c1ccccc1 [Example D76, methyl ((1S)-1-(((2S)-2-(5-(2-(4-(2-((2S)-1-((2R)-2-(diethylamino)-2-phenylacetyl)-2-pyrrolidinyl)-1H-imidazol-5-yl)phenyl)-5-pyrimidinyl)-1H-imidazol-2-yl)-1-pyrrolidinyl)carbonyl)-2-methylpropyl) carbamate] | 0.001 to 0.999 nM
7 | CCN(CC)[C@@H](C(=O)N1CCC[C@H]1c1ncc(-c2ccc(-c3ncc(-c4c[nH]c([C@@H]5CCCN5C(=O)[C@H](C)NC(=O)OC)n4)cn3)cc2)[nH]1)c1ccccc1 [Example D77, methyl ((1S)-2-((2S)-2-(5-(2-(4-(2-((2S)-1-((2R)-2-(diethylamino)-2-phenylacetyl)-2-pyrrolidinyl)-1H-imidazol-5-yl)phenyl)-5-pyrimidinyl)-1H-imidazol-2-yl)-1-pyrrolidinyl)-1-methyl-2-oxoethyl)carbamate] | 0.001 to 0.999 nM
8 | COC(=O)N[C@H](C(=O)N1CCCC1c1ncc(-c2cc(C)c(-c3c(C)cc(-c4cnc([C@@H]5CCCN5C(=O)[C@@H](NC(=O)OC)C(C)C)[nH]4)cc3C)c(C)c2)[nH]1)C(C)C (stereo partly shown) [Example F71] | 0.001 to 0.999 nM
9 | COC(=O)N[C@@H](C)C(=O)N(C)[C@@H](C)c1ncc(-c2ccc(-c3ccc(-c4[nH]c([C@@H]5CCCN5C(=O)[C@H](C)NC(=O)OC)nc4C(F)(F)F)cc3)cc2)[nH]1 [Example J42.a, methyl ((1S)-2-((2S)-2-(5-(4′-(2-((1S)-1-((N-(methoxycarbonyl)-L-alanyl)(methyl)amino)ethyl)-1H-imidazol-5-yl)-4-biphenylyl)-4-(trifluoromethyl)-1H-imidazol-2-yl)-1-pyrrolidinyl)-1-methyl-2-oxoethyl)carbamate] | 0.001 to 0.999 nM
10 | COC(=O)N[C@@H](C(=O)N1CCC[C@H]1c1ncc(-c2cnc(-c3ccc(-c4[nH]c([C@@H]5CCCN5C(=O)[C@H](NC(=O)OC)c5ccccc5)nc4C(F)(F)F)cc3)nc2)[nH]1)c1ccccc1 [Example J46, methyl ((1R)-2-((2S)-2-(5-(4-(5-(2-((2S)-1-((2R)-2-((methoxycarbonyl)amino)-2-phenylacetyl)-2-pyrrolidinyl)-1H-imidazol-5-yl)-2-pyrimidinyl)phenyl)-4-(trifluoromethyl)-1H-imidazol-2-yl)-1-pyrrolidinyl)-2-oxo-1-phenylethyl) carbamate] | 0.001 to 0.999 nM
11 | CCN(CC)[C@@H](C(=O)N1CCC[C@H]1c1ncc(-c2cnc(-c3ccc(-c4[nH]c([C@@H]5CCCN5C(=O)[C@@H](c5ccccc5)N(CC)CC)nc4C(F)(F)F)cc3)nc2)[nH]1)c1ccccc1 [Example J47, (1R)-2-((2S)-2-(5-(4-(5-(2-((2S)-1-((2R)-2-(diethylamino)-2-phenylacetyl)-2-pyrrolidinyl)-1H-imidazol-5-yl)-2-pyrimidinyl)phenyl)-4-(trifluoromethyl)-1H-imidazol-2-yl)-1-pyrrolidinyl)-N,N-diethyl-2-oxo-1-phenylethanamine] | 0.001 to 0.999 nM
12 | COC(=O)N[C@H](C(=O)N1CCC[C@H]1c1ncc(-c2cnc(-c3ccc(-c4[nH]c([C@@H]5CCCN5C(=O)[C@@H](NC(=O)OC)C(C)C)nc4C(F)(F)F)cc3)nc2)[nH]1)C(C)C [Example J48, methyl ((1S)-1-(((2S)-2-(5-(2-(4-(2-((2S)-1-((2S)-2-((methoxycarbonyl)amino)-3-methylbutanoyl)-2-pyrrolidinyl)-4-(trifluoromethyl)-1H-imidazol-5-yl)phenyl)-5-pyrimidinyl)-1H-imidazol-2-yl)-1-pyrrolidinyl)carbonyl)-2-methylpropyl) carbamate] | 0.001 to 0.999 nM
13 | COC(=O)N[C@H](C(=O)N1CCC[C@H]1c1ncc(-c2cnc(-c3ccc(-c4[nH]c([C@@H]5CCCN5C(=O)[C@@H](NC(=O)OC)C5CC5)nc4C(F)(F)F)cc3)nc2)[nH]1)C1CC1 [Example J49, methyl ((1S)-1-cyclopropyl-2-((2S)-2-(5-(4-(5-(2-((2S)-1-((2S)-2-cyclopropyl-2-((methoxycarbonyl)amino)acetyl)-2-pyrrolidinyl)-1H-imidazol-5-yl)-2-pyrimidinyl)phenyl)-4-(trifluoromethyl)-1H-imidazol-2-yl)-1-pyrrolidinyl)-2-oxoethyl)carbamate] | 0.001 to 0.999 nM
14 | COC(=O)N[C@@H](C)C(=O)N1CCC[C@H]1c1ncc(-c2cnc(-c3ccc(-c4[nH]c([C@@H]5CCCN5C(=O)[C@H](C)NC(=O)OC)nc4C(F)(F)F)cc3)nc2)[nH]1 [Example J50, methyl ((1S)-2-((2S)-2-(5-(4-(5-(2-((2S)-1-(N-(methoxycarbonyl)-L-alanyl)-2-pyrrolidinyl)-1H-imidazol-5-yl)-2-pyrimidinyl)phenyl)-4-(trifluoromethyl)-1H-imidazol-2-yl)-1-pyrrolidinyl)-1-methyl-2-oxoethyl)carbamate] | 0.001 to 0.999 nM
15 | COC(=O)N[C@H](C(=O)N1CCC[C@H]1c1ncc(-c2ccc(-c3ccc(-c4cnc([C@@H]5CCCN5C(=O)[C@@H](NC(=O)OC)C(C)C)[nH]4)cc3C(=O)O)cc2)[nH]1)C(C)C [Example M114, 4,4′-bis(2-((2S)-1-(N-(methoxycarbonyl)-L-valyl)-2-pyrrolidinyl)-1H-imidazol-5-yl)-2-biphenylcarboxylic acid] | 1000 to 10000 nM
16 | COC(=O)N[C@H](C(=O)N1CCC[C@H]1c1ncc(-c2ccc(-c3ccc(-c4cnc([C@@H]5CCCN5C(=O)[C@@H](NC(=O)OC)C(C)C)[nH]4)cc3C(N)=O)cc2)[nH]1)C(C)C [Example M118, methyl((1S)-1-(((2S)-2-(5-(2′-carbamoyl-4′-(2-((2S)-1-((2S)-2-((methoxycarbonyl)amino)-3-methylbutanoyl)-2-pyrrolidinyl)-1H-imidazol-5-yl)-4-biphenylyl)-1H-imidazol-2-yl)-1-pyrrolidinyl)carbonyl)-2-methylpropyl)carbamate] | 1000 to 10000 nM
17 | COC(=O)N[C@H](C(=O)N1CCC[C@H]1c1ncc(-c2ccc(-c3ccc(-c4cnc([C@@H]5CCCN5C(=O)[C@@H](NC(=O)OC)C(C)C)[nH]4)cc3CO)cc2)[nH]1)C(C)C [Example M119, methyl((1S)-1-(((2S)-2-(5-(2-(hydroxymethyl)-4′-(2-((2S)-1-((2S)-2-((methoxycarbonyl)amino)-3-methylbutanoyl)-2-pyrrolidinyl)-1H-imidazol-5-yl)-4-biphenylyl)-1H-imidazol-2-yl)-1-pyrrolidinyl)carbonyl)-2-methylpropyl)carbamate] | 100 to 999 nM
18 | COC(=O)N[C@H](C(=O)N1CCC[C@H]1c1ncc(-c2ccc(-c3ccc(-c4cnc([C@@H]5CCCN5C(=O)[C@@H](NC(=O)OC)C(C)C)[nH]4)cc3CN(C)C)cc2)[nH]1)C(C)C [Example M120, methyl((1S)-1-(((2S)-2-(5-(2-((dimethylamino)methyl)-4′-(2-((2S)-1-((2S)-2-((methoxycarbonyl)amino)-3-methylbutanoyl)-2-pyrrolidinyl)-1H-imidazol-5-yl)-4-biphenylyl)-1H-imidazol-2-yl)-1-pyrrolidinyl)carbonyl)-2-methylpropyl)carbamate] | 100 to 999 nM
19 | COC(=O)N[C@@H](C(=O)N1CCC[C@H]1c1ncc(-c2ccc(-c3ccc(-c4cnc([C@@H]5CCCN5C(=O)[C@H](NC(=O)OC)c5ccccc5)[nH]4)cc3CN(C)C)cc2)[nH]1)c1ccccc1 [Example M121, dimethyl((2-((dimethylamino)methyl)-4,4′-biphenyldiyl)bis(1H-imidazole-5,2-diyl(2S)-2,1-pyrrolidinediyl((1R)-2-oxo-1-phenyl-2,1-ethanediyl)))biscarbamate] | 100 to 999 nM
